Consider one molecule from patent publication US6630124B1, “Combination therapy with VIP antagonist” (Ramot-University Authority for Applied Research and …, priority 1998, dated 2003).

For one assay, the system named is HT-29 human colon cancer. Kind of assay: MTS cell proliferation assay, SNH and chemotherapy. As to conditions: HT-29, 4 hour treatment with SNH followed by a 24 hour treatment (FIG. 11). It counts as cell-based. On the procedure:
NCI-H727 and LNCaP were grown in RPMI 1640 medium supplemented with 10% heat inactivated FCS, L-glutamine and antibiotics. HT-29 and CT-26 were grown in DMEM medium supplemented with 10% heat-inactivated FCS (fetal calf serum), L-glutamine and antibiotics. The cells were cultured in 5% CO2/95% air at […] and used during their exponential growth phase. Routinely, the cells which are adherent, were split when a subconfluent monolayer was formed. In different experiments, various concentration of FCS were used. For growth inhibition experiments, subconfluent adherent cells were washed with PBS and treated with trypsin/versene. The cells were pelleted and resuspended in medium to a final concentration of 75,000 cells/mL for NCI-H727. 50,000 cells/mL for LNCaP and HT-29 and 25000 cells/mL for CT-26. These different concentrations were used in order to avoid confluence in the wells at the end of the experiment and correspond to the different doubling times of the cell lines. […] On day 4, viable cell number was determined by a modified MTT assay i.e., MTS non-radioactive cell proliferation assay (Promega). […] Results were finally expressed as percentage of the control, which was obtained from the samples with no drug treatment. Dose-response curves were plotted using a Sigma-Plot software and statistically analyzed using Student test. […] On day 4 the number of viable cells was determined by MTS assay.
For orientation: Formazan colour is commonly taken as a measure of viable cells.

In assay [1] the test system is panel of 56 cancer cell lines. Kind of assay: NCI "compare analysis", panel of 56 cancer cell lines. In kind it is cell-based. The source says: The mean value±S. D. of 8 determinations is indicated; *, p<0.05 using student's t-test. (SN)VIPhyb inhibited the growth of leukemia (CCRF-CEM), HL-60(TB), K-562, MOLT-4, RPMI-8226, SR), non-small cell lung cancer (A549, EKVX, HOP-62, HOP-92, H23, H322M, H460 and H522), colon cancer (COLO205, HCC-2998, HCT-116, HT29, KM12, SW-620), CNS cancer (SF-268, SF-295, SF-539, SNB-19, U251), melanoma (LOX IMVI, MALME-3M, M14, SK-MEL-2, SK-MEL-28, SK-MEL-5, UACC-257, UACC-62), ovarian cancer (IGROV1, OVCAR-3, OVCAR-5, OVCAR-8, SK-OV-3), renal cancer (786-0, A498, CAKI-1, RXF 393, SM12C, TK-l0), prostate cancer (PC-3, DU-145) and breast cancer (MCF-7, MDA-MB-231, HS 578T, MDA-MB-435, MDA-N and T-47D).

Where a SMILES comes first, the peptide text is derived from it. [ ]: non-standard residue; d: D form. The star is where a group is joined. Stearoyl = CCCCCCCCCCCCCCCCCC(=O)*; Nle = CCCC[C@H](N)C(=O)O

On to `CCCCCCCCCCCCCCCCCC(=O)N[C@@H](CCCCN)C(=O)N1CCC[C@H]1C(=O)N[C@@H](CCCNC(=N)N)C(=O)N[C@@H](CCCNC(=N)N)C(=O)N1CCC[C@H]1C(=O)N[C@@H](Cc1ccc(O)cc1)C(=O)N[C@H](C(=O)N[C@@H](CC(=O)O)C(=O)N[C@@H](CC(N)=O)C(=O)N[C@@H](Cc1ccc(O)cc1)C(=O)N[C@H](C(=O)N[C@@H](CCCNC(=N)N)C(=O)N[C@@H](CC(C)C)C(=O)N[C@@H](CCCNC(=N)N)C(=O)N[C@@H](CCCCN)C(=O)N[C@@H](CCC(N)=O)C(=O)N[C@@H](CCCC)C(=O)N[C@@H](C)C(=O)N[C@H](C(=O)N[C@@H](CCCCN)C(=O)N[C@@H](CCCCN)C(=O)N[C@@H](Cc1ccc(O)cc1)C(=O)N[C@@H](CC(C)C)C(=O)N[C@@H](CC(N)=O)C(=O)N[C@@H](CO)C(=O)N[C@H](C(=O)N[C@@H](CC(C)C)C(=O)N[C@@H](CC(N)=O)C(N)=O)[C@@H](C)CC)C(C)C)[C@@H](C)O)[C@@H](C)O` [SNH] (Stearoyl-KPRRPYTDNYTRLRKQ[Nle]AVKKYLNSILN-NH2), for which the “effect of the combination with a different schedule” value in the assay with HT-29 human colon cancer is “also effective”. Further, the “cell lines significantly inhibited” value in assay [1] (CNS cancer) is on record as 5/5; in assay [1] (breast cancer), 6/8; in assay [1] (colon cancer) it was 6/7; in assay [1] (leukemia), 6/6; in assay [1] (melanoma), 8/8; in assay [1] (non-small cell lung cancer), 7/7. Also, the “cell lines significantly inhibited” value in assay [1] (ovarian cancer) is recorded as 5/6; in assay [1] (prostate cancer) it was 2/2; in assay [1] (renal cancer) it was 6/7. The “cell lines whose proliferation was significantly inhibited” value in assay [1] (all cell lines tested) is reported as 51 of 56.
